Results: ChEMBL document CHEMBL5528055, “Discovery and Identification of Novel 5-Hydroxy-4H-benzo[1,4]oxazin-3-one Derivatives as Potent β2-Adrenoceptor Agonists through Structure-Based Design, Synthesis, and Biological Evaluation” (J Med Chem, 2024)

What was measured:
[1] = biological target: Beta-1 adrenergic receptor (Homo sapiens, UniProt P08588)
Description: Agonist activity at human beta1 adrenoceptor expressed in HEK293 cells assessed as induction of accumulation of cAMP by HTRF assay

[2] = biological target: Beta-2 adrenergic receptor (Homo sapiens, UniProt P07550)
Description: Agonist activity at human beta2 adrenoceptor expressed in HEK293 cells assessed as induction of accumulation of cAMP by HTRF assay

Trachea = assay: Induction of smooth muscle relaxation in male Dunkin-Hartley guinea pig trachea strips assessed as maximal relaxation of histamine phosphate-induced guinea pig airway smooth muscle contraction relative to control; settings: Cavia porcellus
[3] = AUC (0 to t) in male Balb/c mouse at 2 mg/kg, iv measured upto 24 hrs by LC-MS/MS analysis; format: ADME, organism-based; settings: in vivo
[4] = Half life in male Balb/c mouse at 10 mg/kg, po measured upto 24 hrs by LC-MS/MS analysis; format: ADME, organism-based; settings: in vivo
[5] = MRT (0 to infinity) in male Balb/c mouse at 2 mg/kg, iv measured upto 24 hrs by LC-MS/MS analysis; format: ADME, organism-based; settings: in vivo
[6] = MRT in male Balb/c mouse at 10 mg/kg, po measured upto 24 hrs by LC-MS/MS analysis; format: ADME, organism-based; settings: in vivo
[7] = MRT (0 to infinity) in male Balb/c mouse at 10 mg/kg, po measured upto 24 hrs by LC-MS/MS analysis; format: ADME, organism-based; settings: in vivo
[8] = Apparent volume of distribution in male Balb/c mouse at 2 mg/kg, iv measured upto 24 hrs by LC-MS/MS analysis; format: ADME, organism-based; settings: in vivo, read-out: Vd(app)
[9] = Tmax in male Balb/c mouse at 10 mg/kg, po measured upto 24 hrs by LC-MS/MS analysis; format: ADME, organism-based; settings: in vivo
[10] = Oral bioavailability in male Balb/c mouse at 10 mg/kg measured upto 24 hrs by LC-MS/MS analysis; format: ADME, organism-based; settings: in vivo
[11] = Half life in male Balb/c mouse at 2 mg/kg, iv measured upto 24 hrs by LC-MS/MS analysis; format: ADME, organism-based; settings: in vivo
[12] = AUC (0 to infinity) in male Balb/c mouse at 10 mg/kg, po measured upto 24 hrs by LC-MS/MS analysis; format: ADME, organism-based; settings: in vivo
[13] = MRT in male Balb/c mouse at 2 mg/kg, iv measured upto 24 hrs by LC-MS/MS analysis; format: ADME, organism-based; settings: in vivo
[14] = Cmax in male Balb/c mouse at 10 mg/kg, po measured upto 24 hrs by LC-MS/MS analysis; format: ADME, organism-based; settings: in vivo
[15] = Clearance in male Balb/c mouse at 2 mg/kg, iv measured upto 24 hrs by LC-MS/MS analysis; format: ADME, organism-based; settings: in vivo
[16] = Tmax in male Balb/c mouse at 2 mg/kg, iv measured upto 24 hrs by LC-MS/MS analysis; format: ADME, organism-based; settings: in vivo
[17] = AUC (0 to infinity) in male Balb/c mouse at 2 mg/kg, iv measured upto 24 hrs by LC-MS/MS analysis; format: ADME, organism-based; settings: in vivo
[18] = Cmax in male Balb/c mouse at 2 mg/kg, iv measured upto 24 hrs by LC-MS/MS analysis; format: ADME, organism-based; settings: in vivo
[19] = AUC (0 to t) in male Balb/c mouse at 10 mg/kg, po measured upto 24 hrs by LC-MS/MS analysis; format: ADME, organism-based; settings: in vivo

Beta-2 adrenergic receptor, sequence (P07550 whole entry): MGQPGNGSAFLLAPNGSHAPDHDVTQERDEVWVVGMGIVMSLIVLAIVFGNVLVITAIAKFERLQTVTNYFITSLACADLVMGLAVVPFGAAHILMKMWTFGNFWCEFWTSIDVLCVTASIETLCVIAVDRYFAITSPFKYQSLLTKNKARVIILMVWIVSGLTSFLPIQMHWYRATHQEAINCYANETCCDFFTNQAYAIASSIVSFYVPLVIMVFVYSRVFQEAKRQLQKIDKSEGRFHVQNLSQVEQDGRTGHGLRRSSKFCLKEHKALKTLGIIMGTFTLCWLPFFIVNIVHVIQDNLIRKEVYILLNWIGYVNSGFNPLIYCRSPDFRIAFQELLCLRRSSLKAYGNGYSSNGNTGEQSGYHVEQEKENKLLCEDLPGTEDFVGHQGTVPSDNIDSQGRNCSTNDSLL
Beta-1 adrenergic receptor, sequence (P08588 whole entry): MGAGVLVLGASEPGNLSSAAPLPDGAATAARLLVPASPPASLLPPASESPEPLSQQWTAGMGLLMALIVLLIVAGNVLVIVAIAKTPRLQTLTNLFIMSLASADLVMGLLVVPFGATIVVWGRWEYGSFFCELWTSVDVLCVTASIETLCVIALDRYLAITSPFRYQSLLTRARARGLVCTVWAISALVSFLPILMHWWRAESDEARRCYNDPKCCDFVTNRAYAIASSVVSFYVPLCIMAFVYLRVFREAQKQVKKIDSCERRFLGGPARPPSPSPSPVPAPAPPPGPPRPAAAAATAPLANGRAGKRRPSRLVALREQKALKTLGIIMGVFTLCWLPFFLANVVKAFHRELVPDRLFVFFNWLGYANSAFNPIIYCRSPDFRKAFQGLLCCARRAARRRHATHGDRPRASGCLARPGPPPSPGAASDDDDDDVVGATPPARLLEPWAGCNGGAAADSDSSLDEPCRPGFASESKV

SMILES | EC50 [1] | EC50 [2] | Emax (Trachea) | further results
CCCCNCC(O)c1ccc(O)c2c1OCC(=O)N2 (stereo not given) | 16.6 nM | 0.0257 nM | 53.3% | –
O=C1COc2c(C(O)CNCCc3ccccc3F)ccc(O)c2N1 (stereo not given) | 4.07 nM | 0.0115 nM | 128% | –
COc1cccc(CCNCC(O)c2ccc(O)c3c2OCC(=O)N3)c1 (stereo not given) | – | 0.00871 nM | – | –
O=C1COc2c(C(O)CNCCC(c3ccccc3)c3ccccc3)ccc(O)c2N1 (stereo not given) | 2.24 nM | 0.0468 nM | 63.3% | –
O=C1COc2c(C(O)CNCCc3ccccc3)ccc(O)c2N1 (stereo not given) | 1.91 nM | – | – | –
CC(C)NCC(O)c1ccc(O)c(O)c1 (stereo not given) [ISOPROTERENOL] | – | – | 141% | –
COc1ccccc1CCNCC(O)c1ccc(O)c2c1OCC(=O)N2.Cl (stereo not given) | – | – | – | AUC(0-t) at 24 h [3]: 329 ng·h/mL; half-life [4]: 3.77 h; MRT inf [5]: 3.43 h; MRT [6]: 5.92 h; MRT inf [7]: 6.98 h; Vd [8]: 44 L/kg; Tmax [9]: 5.33 h; F [10]: 7.65%; half-life [11]: 5.21 h; AUC [12]: 306 ng·h/mL; MRT [13]: 2.67 h; Cmax [14]: 24 ng/mL; clearance [15]: 102 mL/min/kg; Tmax [16]: 4.98 min; AUC [17]: 338 ng·h/mL; Cmax [18]: 416 ng/mL; AUC(0-t) at 24 h [19]: 294 ng·h/mL
O=C1COc2c(C(O)CNCCc3cccc(F)c3)ccc(O)c2N1 (stereo not given) | 1.38 nM | 0.024 nM | 94.9% | –
CC(C)NCC(O)c1ccc(O)c2c1OCC(=O)N2 (stereo not given) | 1.82 nM | – | – | –
COc1ccc(CCNCC(O)c2ccc(O)c3c2OCC(=O)N3)cc1 (stereo not given) | 2.19 nM | 0.0132 nM | 59.6% | –
CCCNCC(O)c1ccc(O)c2c1OCC(=O)N2 (stereo not given) | 14.5 nM | 0.0316 nM | 60.5% | –

More lines, in order of falling EC50 [2], values ahead:

EC50 [1] | EC50 [2] | SMILES | Emax (Trachea) | further results
– | 0.00794 nM | COc1cccc(CCCNCC(O)c2ccc(O)c3c2OCC(=O)N3)c1 (stereo not given) | – | –
0.12 nM | 0.00575 nM | O=C1COc2c(C(O)CNCCCc3ccc(O)cc3)ccc(O)c2N1 (stereo not given) | 181% | –
3.72 nM | 0.00537 nM | O=C1COc2c(C(O)CNCCc3ccc(F)cc3)ccc(O)c2N1 (stereo not given) | 76.7% | –
0.17 nM | 0.00479 nM | O=C1COc2c(C(O)CNCCCc3ccccc3F)ccc(O)c2N1 (stereo not given) | 90.5% | –
– | 0.00468 nM | O=C1COc2c(C(O)CNCCCc3cccc(F)c3)ccc(O)c2N1 (stereo not given) | 126% | –
0.178 nM | 0.00457 nM | COc1ccccc1CCCNCC(O)c1ccc(O)c2c1OCC(=O)N2 (stereo not given) | 109% | –
0.138 nM | 0.00437 nM | O=C1COc2c(C(O)CNCCCc3cccc(O)c3)ccc(O)c2N1 (stereo not given) | 87.4% | –
0.245 nM | 0.0038 nM | O=C1COc2c(C(O)CNCCCc3ccc(F)cc3)ccc(O)c2N1 (stereo not given) | 69.5% | –
